Results on 27 compounds are retold here after patent publication US20250313548A1 (Actio Biosciences, Inc., priority 2023, published 2025).

For this experiment, the target named is human, KCNT1 (Homo sapiens (Human), UniProt Q5JUK3). As to the kind of experiment: FLIPR Tl/K Flux Assay. Format: cell-based. The conditions noted are these: HEK293 cells stably expressing human KCNT1; Tl+ flux stimulated with EC80 of agonist Loxapine. In outline: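 Inhibition values come from a Hill-equation fit of % inhibition versus log concentration, using normalized fluorescence (Fmax/Fmin) over a 160 s read. The read followed stimulation with Tl+ plus EC80 agonist loxapine after 30 min compound pre-incubation at 25 °C. Cells were KCNT1-expressing HEK293, dye-loaded 1 h in pH 7.4 HEPES/HBSS with 5 mM probenecid.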
human, KCNT1, sequence (Q5JUK3 whole entry): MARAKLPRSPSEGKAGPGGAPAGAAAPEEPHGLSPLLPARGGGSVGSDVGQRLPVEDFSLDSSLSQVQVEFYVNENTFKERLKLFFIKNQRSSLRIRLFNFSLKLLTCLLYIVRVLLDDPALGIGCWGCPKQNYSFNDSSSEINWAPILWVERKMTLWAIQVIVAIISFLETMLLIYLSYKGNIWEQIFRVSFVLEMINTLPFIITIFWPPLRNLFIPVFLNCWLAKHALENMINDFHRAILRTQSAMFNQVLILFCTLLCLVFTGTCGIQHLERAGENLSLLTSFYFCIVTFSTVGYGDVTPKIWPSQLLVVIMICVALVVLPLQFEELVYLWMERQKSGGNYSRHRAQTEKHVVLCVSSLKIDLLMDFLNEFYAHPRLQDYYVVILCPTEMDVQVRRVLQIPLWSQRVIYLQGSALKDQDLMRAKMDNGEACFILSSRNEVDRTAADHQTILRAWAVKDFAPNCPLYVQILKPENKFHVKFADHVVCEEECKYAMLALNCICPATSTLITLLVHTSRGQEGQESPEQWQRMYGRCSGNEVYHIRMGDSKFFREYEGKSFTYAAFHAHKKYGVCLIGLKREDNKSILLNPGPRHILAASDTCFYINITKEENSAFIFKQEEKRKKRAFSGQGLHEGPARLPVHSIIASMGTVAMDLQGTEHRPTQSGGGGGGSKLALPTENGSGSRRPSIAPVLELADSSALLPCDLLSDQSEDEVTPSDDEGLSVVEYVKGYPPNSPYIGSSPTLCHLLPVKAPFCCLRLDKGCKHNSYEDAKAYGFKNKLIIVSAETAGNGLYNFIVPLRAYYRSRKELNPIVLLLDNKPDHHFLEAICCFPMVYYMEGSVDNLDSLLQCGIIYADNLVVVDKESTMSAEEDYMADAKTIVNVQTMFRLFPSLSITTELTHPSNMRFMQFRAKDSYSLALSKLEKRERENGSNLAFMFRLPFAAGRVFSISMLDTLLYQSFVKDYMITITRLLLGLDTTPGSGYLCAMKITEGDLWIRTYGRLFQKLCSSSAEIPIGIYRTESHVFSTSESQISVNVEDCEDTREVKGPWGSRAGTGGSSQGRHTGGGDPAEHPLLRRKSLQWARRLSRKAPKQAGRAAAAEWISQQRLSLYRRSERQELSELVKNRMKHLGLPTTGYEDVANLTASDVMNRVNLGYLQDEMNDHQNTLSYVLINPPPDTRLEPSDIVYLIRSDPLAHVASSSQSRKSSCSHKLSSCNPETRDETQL
Usually IC50 stands for the midpoint of a concentration-inhibition curve. For the compound `Cn1nc(C(F)(F)F)cc1C(=O)NC1CCCc2nn(-c3ccc(=O)n(C)c3)cc21` (racemic) [Compound I-39, (rac)-1-Methyl-N-(2-(1-methyl-6-oxo-1,6-dihydropyridin-3-yl)-4,5,6,7-tetrahydro-2H-indazol-4-yl)-3-(trifluoromethyl)-1H-pyrazole-5-carboxamide], the concentration for half-maximal inhibition (IC50) is greater than 1 µM.
As for `O=C(N[C@H]1CCn2nc(-c3ccnc(C(F)(F)F)c3)cc21)c1cc2cccnn2c1` [Compound I-291a, (S)-N-(2-(2-(Trifluoromethyl)pyridin-4-yl)-5,6-dihydro-4H-pyrrolo[1,2-b]pyrazol-4-yl)pyrrolo[1,2-b]pyridazine-6-carboxamide], the figure is less than 0.25 µM; as for `Cn1nc(C(F)(F)F)cc1C(=O)N[C@H]1CCCc2cc(-c3ccnc(C(F)(F)F)c3)[nH]c21` [Compound I-89a, (S)-1-Methyl-3-(trifluoromethyl)-N-(2-(2-(trifluoromethyl)pyridin-4-yl)-4,5,6,7-tetrahydro-1H-indol-7-yl)-1H-pyrazole-5-carboxamide], greater than 1 µM.
As for `O=C(N[C@H]1CCCn2nc(-c3ccnc(C4CC4)c3)cc21)c1cc(Cl)cc(C(F)(F)F)c1` [Compound I-111a], the figure is less than 0.25 µM.
As for `Cn1nc(C2CC2)nc1C(=O)N[C@H]1CCCc2oc(-c3ccnc(C4CC4)c3)nc21` [Compound I-223a, (S)-3-Cyclopropyl-N-(2-(2-cyclopropylpyridin-4-yl)-4,5,6,7-tetrahydrobenzo[d]oxazol-4-yl)-1-methyl-1H-1,2,4-triazole-5-carboxamide], the IC50 is less than 0.25 µM.
As for `CS(=O)(=O)c1cccc(C(=O)N[C@H]2CCc3nn(-c4ccnc(C(F)(F)F)c4)cc32)c1` [Compound I-395a], the figure is greater than 1 µM.
As for `Cn1nc(C(F)(F)F)cc1C(=O)NC1CCn2nc(-c3ccnc(C(F)(F)F)c3)cc2C1` (stereo not drawn) [Compound I-468], the figure is less than 0.25 µM.
Regarding `Cn1nc(C(F)(F)F)cc1C(=O)N[C@@H]1CCc2nn(-c3ccnc(OC(F)F)c3)cc21` [Compound I-74b], the half-maximal inhibitory concentration (IC50) was greater than 1 µM.
In turn, `O=C(N[C@H]1CCCCc2nn(-c3ccnc(C4CC4)c3)cc21)c1cc(Cl)cc(C(F)(F)F)c1` [Compound I-110a] yielded a half-inhibitory concentration (IC50) of less than 0.25 µM.
In turn, `COc1cc(-c2cc3n(n2)CC[C@@H]3NC(=O)c2cncc(C(F)(F)F)n2)c(F)cn1` [Compound I-576a, (S)-N-(2-(5-Fluoro-2-methoxypyridin-4-yl)-5,6-dihydro-4H-pyrrolo[1,2-b]pyrazol-4-yl)-6-(trifluoromethyl)pyrazine-2-carboxamide] registered a 50% inhibitory concentration (IC50) of less than 0.25 µM.
Compound `COc1cc(C(=O)N[C@H]2CCCCn3nc(-c4ccnc(C(C)(F)F)c4)cc32)ccn1` [Compound I-273a] came in with a half-maximal inhibitory concentration (IC50) of less than 0.25 µM.
For the compound `COc1cc(C(=O)N[C@H]2CCCCn3nc(-c4cc(C(F)(F)F)ncc4F)cc32)ccn1` [Compound I-194a, (S)-N-(2-(5-Fluoro-2-(trifluoromethyl)pyridin-4-yl)-5,6,7,8-tetrahydro-4H-pyrazolo[1,5-a]azepin-4-yl)-2-methoxyisonicotinamide], the 50% inhibitory concentration (IC50) was less than 0.25 µM.
Compound `CC(C)(C)OC(=O)N[C@H]1CCc2nn(-c3ccnc(C(F)(F)F)c3)cc21` [Compound I-105a] yielded a half-inhibitory concentration (IC50) of less than 0.25 µM.
As for `COc1cc(-c2cc3n(n2)CC[C@@H]3NC(=O)c2cc(C(F)(F)F)nn2C)c(F)cn1` [Compound I-243a, (S)-N-(2-(5-Fluoro-2-methoxypyridin-4-yl)-5,6-dihydro-4H-pyrrolo[1,2-b]pyrazol-4-yl)-1-methyl-3-(trifluoromethyl)-1H-pyrazole-5-carboxamide], the figure is less than 0.25 µM; as for `Cn1nc(C(F)(F)F)cc1C(=O)N[C@H]1CCCCc2nn(-c3ccnc(C4CC4)c3)cc21` [Compound I-56a], less than 0.25 µM.
`O=C(N[C@H]1CCn2nc(-c3ccnc(C(F)(F)F)c3)cc21)c1ccnc(OC(F)F)c1` [Compound I-226a, (S)-2-(Difluoromethoxy)-N-(2-(2-(trifluoromethyl)pyridin-4-yl)-5,6-dihydro-4H-pyrrolo[1,2-b]pyrazol-4-yl)isonicotinamide] registered a half-inhibitory concentration (IC50) of less than 0.25 µM.
As for `COc1cc(-c2cc3n(n2)CC[C@@H]3NC(=O)c2nc(C(F)(F)F)nn2C)ccn1` [Compound I-237a, (S)-N-(2-(2-Methoxypyridin-4-yl)-5,6-dihydro-4H-pyrrolo[1,2-b]pyrazol-4-yl)-1-methyl-3-(trifluoromethyl)-1H-1,2,4-triazole-5-carboxamide], the figure is less than 0.25 µM; as for `O=C(N[C@H]1CCCn2nc(-c3ccnc(C(F)(F)F)c3)cc21)c1nc2ccccn2n1` [Compound I-422a], greater than 1 µM.
As for `O=C(N[C@H]1CCCc2oc(-c3ccnc(C4CC4)c3)nc21)c1cccc(F)c1` [Compound I-131a, (S)-N-(2-(2-Cyclopropylpyridin-4-yl)-4,5,6,7-tetrahydrobenzo[d]oxazol-4-yl)-3-fluorobenzamide], the figure is less than 0.25 µM; as for `Cn1nc(C(F)(F)F)cc1C(=O)NC1CCCc2nn(-c3cc[nH]c(=O)c3)cc21` (racemic) [Compound I-35, (rac)-1-Methyl-N-(2-(2-oxo-1,2-dihydropyridin-4-yl)-4,5,6,7-tetrahydro-2H-indazol-4-yl)-3-(trifluoromethyl)-1H-pyrazole-5-carboxamide], greater than 1 µM.
As for `N#Cc1cccc(C(=O)N[C@@H]2CCCCc3oc(-c4ccnc(C(F)(F)F)c4)nc32)c1` [Compound I-160b, (R)-3-cyano-N-(2-(2-(trifluoromethyl)pyridin-4-yl)-5,6,7,8-tetrahydro-4H-cyclohepta[d]oxazol-4-yl)benzamide], the figure is less than 0.25 µM; as for `COc1cc(-n2cc3c(n2)CC[C@@H]3NC(=O)c2cc(F)cc(F)c2)ccn1` [Compound I-446a], less than 0.25 µM; as for `CC(C)Oc1cc(C(=O)N[C@H]2CCn3nc(-c4ccnc(C5CC5)c4)cc32)ccn1` [Compound I-542a, (S)-N-(2-(2-Cyclopropylpyridin-4-yl)-5,6-dihydro-4H-pyrrolo[1,2-b]pyrazol-4-yl)-2-isopropoxyisonicotinamide], less than 0.25 µM.
Turning to `O=C(N[C@H]1CCCn2nc(-c3cc(C(F)(F)F)ncc3F)cc21)c1cnc(C(F)(F)F)cn1` [Compound I-202a, (S)-N-(2-(5-Fluoro-2-(trifluoromethyl)pyridin-4-yl)-4,5,6,7-tetrahydropyrazolo[1,5-a]pyridin-4-yl)-5-(trifluoromethyl)pyrazine-2-carboxamide], the half-inhibitory concentration (IC50) is less than 0.25 µM.
With `COc1cc(-c2nc3c(o2)[C@@H](NC(=O)c2cc(Cl)cc(Cl)c2)CCC3)c(F)cn1` [Compound I-174a, (S)-3,5-Dichloro-N-(2-(5-fluoro-2-methoxypyridin-4-yl)-4,5,6,7-tetrahydrobenzo[d]oxazol-7-yl)benzamide], the half-inhibitory concentration (IC50) is less than 0.25 µM.
As for `CCOc1cc(C(=O)N[C@H]2CCCn3nc(-c4ccnc(C(F)(F)F)c4)cc32)ccn1` [Compound I-282a, (S)-2-Ethoxy-N-(2-(2-(trifluoromethyl)pyridin-4-yl)-4,5,6,7-tetrahydropyrazolo[1,5-a]pyridin-4-yl)isonicotinamide], the figure is less than 0.25 µM; as for `COc1cc(-c2cc3n(n2)CCC[C@@H]3NC(=O)c2ccnc(C(F)(F)F)c2)ccn1` [Compound I-364a], less than 0.25 µM.
